Experiments:
[1] = Body weight and toxicity signals in CT26 syngeneic mouse model; type: in vivo; details: treated individually or in combination, FIG. 24
Description: 2×10^5 CT26 cell lines were prepared in 50 μL culture medium and subcutaneously injected. […] The cGAMP solution was manufactured with a final composition of PEG400:distilled water=40:60, and 20 μL was injected each time. The solution of the compound of Formula 1 was manufactured with the composition of DMSO:PEG400:distilled water=2:40:58, and 20 μL was injected each time. The cGAMP solution was injected once every two days, four times in total, and the solution of the compound of Formula 1 was injected once every four days, two times in total, starting with the second administration of cGAMP. The size of the tumor was measured by using calipers every two days, and the volume thereof was calculated as (length×width×height/2). The body weight of the mice was also measured every two days.

[2] = tested on: phosphorylation of downstream signaling proteins TBK1 and IRF3; assay: Western blotting of STING sub-immune signaling pathway activation; type: cell-based; details: cGAMP alone; FIG. 7
Description: First, the A431 cell line was seeded in a transparent 12-well plate and cultured for one day. Thereafter, the cells were treated with the compounds of Formulas 1 to 6, respectively, and then cultured for additional 24 hours. Finally, after supernatant culture medium of the cells was removed, the remaining supernatant was diluted and removed with PBS (phosphate buffer saline) to prepare a Western blotting sample. All procedures for preparing Western blotting sample were performed at 4° C. […] The protein concentration of the supernatant was measured by using the Micro BCA™ protein assay kit (ThermoFisher) according to the protocol of the manufacturer. […] The treated samples were analyzed by SDS-PAGE, then transferred to a PVDF membrane, and cultured in a TBST solution containing 4% BSA for 30 minutes. […] Finally, after four TBST washing processes, the solution was developed with an ECL (enhanced chemiluminescence) prime solution of Amersham, the chemical luminescence signal was measured by using ChemiDoc MP of Bio-Rad Laboratories, Inc., the obtained results were quantified by using the ImageLab 6.0 program, and the results were plotted by using the Prism 8.0 program. […]

Compound: Nc1nc2c(ncn2[C@@H]2O[C@@H]3COP(=O)(O)O[C@H]4[C@@H](O)[C@H](n5cnc6c(N)ncnc65)O[C@@H]4COP(=O)(O)O[C@@H]2[C@@H]3O)c(=O)[nH]1 [cGAMP, 2′,3′-Cyclic GMP-AMP, reference compound]
- body weight change or signal of toxicity [1]: significant change in body weight or signal of toxicity was not observed
- phosphorylation of TBK1 and IRF3 [2]: increased

— patent US20250127778A1, “CANCER IMMUNOTHERAPY COMPOSITION CONTAINING INTERACTION INHIBITOR OF STING AND TRIM29 AS ACTIVE INGREDIENT” (SPARK BIOPHARMA, INC, priority 2021, published 2025)
